In general, IC50 refers to the concentration that inhibits the measured activity by half. Lower therefore signals inhibition by little substance.

This experiment addresses T1, Dimer of Gag-Pol polyprotein [501-599] (Human immunodeficiency virus 1, UniProt P03367).
T1 construct: 501-599
Put plainly: Protease Inhibition Assay. The following applies: pH 4.7; 30 °C. Here is the method:
HIV-1 protease activity was measured by a continuous fluorometric assay using the internally quenched fluorogenic substrate DABCYL-Ser-Gln-Asn-Tyr-Pro-Ile-Val-Gln-EDANS. The proteolytic activity can be monitored by the increase in fluorescence intensity, and the protease products were analyzed by HPLC.
The compound `O[C@@H]([C@H](O)[C@@H](Cc1ccccc1)OCc1ccccc1)[C@@H](Cc1ccccc1)OCc1ccccc1` [(2R,3S,4S,5R)-2,5-bis(benzyloxy)-1,6-diphenylhexane-3,4-diol] registered an IC50 of more than 50 µM.
With `O[C@H]([C@H](O)[C@@H](COCc1ccccc1)OCc1ccccc1)[C@@H](COCc1ccccc1)OCc1ccccc1` [(2R,3R,4S,5R)-1,2,5,6-tetrakis(benzyloxy)hexane-3,4-diol] the figure was more than 50 µM; with `O[C@@H]([C@H](O)[C@@H](COCc1ccccc1)OCc1ccccc1)[C@H](COCc1ccccc1)OCc1ccccc1` [(2R,3S,4S,5S)-1,2,5,6-tetrakis(benzyloxy)hexane-3,4-diol], more than 50 µM.
Regarding `O[C@@H](C[C@@H](COCc1ccccc1)OCc1ccccc1)[C@@H](COCc1ccccc1)OCc1ccccc1` [(2R,3S,5S)-1,2,5,6-tetrakis(benzyloxy)hexan-3-ol], the IC50 is more than 50 µM.
With `O[C@@H]([C@H](O)[C@@H](COc1ccccc1)OCc1ccccc1)[C@@H](COc1ccccc1)OCc1ccccc1` [(2R,3S,4S,5R)-2,5-bis(benzyloxy)-1,6-diphenoxyhexane-3,4-diol] the figure was more than 50 µM.
`O[C@H]([C@@H](O)[C@H](COCc1ccccc1)OCc1ccccc1)[C@H](COCc1ccccc1)OCc1ccccc1` [(2S,3R,4R,5S)-1,2,5,6-tetrakis(benzyloxy)hexane-3,4-diol] yielded an IC50 of more than 50 µM.
On to `O[C@H]([C@H](O)[C@H](COCc1ccccc1)OCc1ccccc1)[C@@H](COCc1ccccc1)OCc1ccccc1` [(2R,3R,4S,5S)-1,2,5,6-tetrakis(benzyloxy)hexane-3,4-diol], for which the IC50 was more than 50 µM.

Source of the values: BindingDB's records for doi:10.1016/s0960-894x(03)00677-2 (Pharmacor, 2003).
